In patent publication US20090247559A1 (Exelixis, Inc., priority 2007, published 2009) one finds IC50 data, which are given here for 24 compounds.

Where two headings read alike, the source gives them in different places.

In one test the target is CDC7 (Homo sapiens, UniProt O00311). In words: CDC7 inhibition, biochemical chemiluminescence assay (Kinase Glo, IC50 determination). The method, boiled down: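 CDC7 enzyme preincubated with compound 10 min at ambient temperature, then ATP mix in Tris Base added; reaction 90 min at 24-27 °C. Remaining ATP quantified by Kinase Glo luminescence to give IC50.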
Chain of CDC7 (O00311 whole entry): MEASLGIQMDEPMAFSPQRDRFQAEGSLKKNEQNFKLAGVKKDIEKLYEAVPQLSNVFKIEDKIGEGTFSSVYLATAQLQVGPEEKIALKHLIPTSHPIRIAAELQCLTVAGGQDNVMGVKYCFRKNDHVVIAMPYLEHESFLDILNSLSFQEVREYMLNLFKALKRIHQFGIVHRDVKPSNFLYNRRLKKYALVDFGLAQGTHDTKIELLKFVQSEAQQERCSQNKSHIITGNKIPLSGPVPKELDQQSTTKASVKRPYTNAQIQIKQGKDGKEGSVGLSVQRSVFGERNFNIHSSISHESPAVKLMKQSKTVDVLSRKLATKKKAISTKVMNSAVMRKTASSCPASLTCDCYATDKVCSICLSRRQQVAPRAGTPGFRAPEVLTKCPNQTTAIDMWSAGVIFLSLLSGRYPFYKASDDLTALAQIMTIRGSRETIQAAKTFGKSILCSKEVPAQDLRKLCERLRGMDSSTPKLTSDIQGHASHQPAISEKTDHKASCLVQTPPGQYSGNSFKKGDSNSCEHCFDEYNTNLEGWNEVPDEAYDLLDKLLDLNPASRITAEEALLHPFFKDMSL
Chain of CDC7 (Q9UBU7 whole entry partner): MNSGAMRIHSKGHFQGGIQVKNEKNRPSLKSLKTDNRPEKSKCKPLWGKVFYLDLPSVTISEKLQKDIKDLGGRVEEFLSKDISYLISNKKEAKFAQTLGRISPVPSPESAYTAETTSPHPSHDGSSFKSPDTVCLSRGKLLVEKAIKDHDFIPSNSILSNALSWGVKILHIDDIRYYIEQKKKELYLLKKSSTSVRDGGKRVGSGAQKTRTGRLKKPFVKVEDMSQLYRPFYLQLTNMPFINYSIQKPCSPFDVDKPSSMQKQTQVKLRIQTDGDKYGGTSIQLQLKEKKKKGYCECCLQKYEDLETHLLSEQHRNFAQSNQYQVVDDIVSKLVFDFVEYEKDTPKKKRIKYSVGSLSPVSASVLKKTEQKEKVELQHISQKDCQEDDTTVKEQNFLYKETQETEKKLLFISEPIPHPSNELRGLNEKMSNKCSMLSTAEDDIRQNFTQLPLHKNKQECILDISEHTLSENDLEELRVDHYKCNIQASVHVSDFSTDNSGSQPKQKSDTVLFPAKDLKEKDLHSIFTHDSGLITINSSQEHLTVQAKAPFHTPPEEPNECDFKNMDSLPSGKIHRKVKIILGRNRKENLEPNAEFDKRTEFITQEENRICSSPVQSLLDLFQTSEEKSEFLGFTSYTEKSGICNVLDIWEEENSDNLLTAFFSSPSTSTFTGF
The target of test [1] is PIM (PIM-1, PIM-2, and/or PIM-3). Briefly: PIM-1, PIM-2 and PIM-3 inhibition, biochemical chemiluminescence assays (Kinase Glo, IC50 determination). The following applies: Table 1 activity class; PIM refers to PIM-1, PIM-2, and/or PIM-3; read-out: PIM IC50 (Activity B).
For a further test, the target named is CK2 (Homo sapiens, UniProt P68400). Briefly: CK2 inhibition, biochemical chemiluminescence holoenzyme assay (Kinase Glo, IC50 determination). Particulars: Table 1 activity class; symbol given only if active; read-out: CK2 IC50 (Activity C). The method, boiled down: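 Holoenzyme CK2 assay; compounds pre-incubated with substrate and enzyme, then reacted 150 min at 24-27° C. Remaining ATP measured as luminescence with Kinase Glo, and IC50 derived from the signal.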
Chain of CK2 (P68400 whole entry): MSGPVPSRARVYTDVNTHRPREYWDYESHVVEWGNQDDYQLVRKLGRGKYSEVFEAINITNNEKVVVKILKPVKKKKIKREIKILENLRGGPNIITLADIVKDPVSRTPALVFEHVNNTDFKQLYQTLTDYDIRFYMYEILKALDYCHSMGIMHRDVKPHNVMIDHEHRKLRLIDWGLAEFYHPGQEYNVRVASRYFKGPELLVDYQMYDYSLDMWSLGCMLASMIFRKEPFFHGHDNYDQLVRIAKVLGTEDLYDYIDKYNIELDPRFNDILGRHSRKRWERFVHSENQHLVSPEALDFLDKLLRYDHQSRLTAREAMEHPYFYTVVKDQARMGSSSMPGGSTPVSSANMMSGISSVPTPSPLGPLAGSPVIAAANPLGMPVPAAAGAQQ
Chain of CK2 (P67870 whole entry partner): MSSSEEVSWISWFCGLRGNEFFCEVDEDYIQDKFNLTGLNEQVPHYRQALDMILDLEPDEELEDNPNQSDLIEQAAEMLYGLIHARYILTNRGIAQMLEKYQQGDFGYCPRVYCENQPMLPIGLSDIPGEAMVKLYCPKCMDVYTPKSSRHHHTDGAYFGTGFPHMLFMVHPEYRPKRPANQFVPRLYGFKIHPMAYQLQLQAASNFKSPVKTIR
For orientation: Kinase-Glo reads ATP consumption through a luciferase reaction.

Setting [2] is: Table 1 activity class, symbol given only if active, read-out: CDC7 IC50 (Activity A).
Where [3] appears, read: compounds in Table 1, read-out: CDC7 IC50 value.

Turning to `COc1ccc(C(=O)Nc2ccc(-c3nc4c(oc5ccc(Br)cc54)c(=O)[nH]3)c(Cl)c2)cn1` [Compound 343, N-[4-(8-bromo-4-oxo-3,4-dihydro[1]benzofuro[3,2-d]pyrimidin-2-yl)-3-chlorophenyl]-6-(methyloxy)pyridine-3-carboxamide], the IC50 (at CDC7 (setting [2]); in test [1]; on CK2) was less than 10 µM in each case.
With `O=c1[nH]c(CN2CCC[C@@H]2CO)nc2c1oc1ccc(Br)cc12` [Compound 344, 8-bromo-2-{[(2R)-2-(hydroxymethyl)pyrrolidin-1-yl]methyl}[1]benzofuro[3,2-d]pyrimidin-4(3H)-one], the concentration for half-maximal inhibition (IC50) is less than 10 µM at CDC7 (setting [2]), less than 0.1 µM at CDC7 (setting [3]), less than 10 µM in test [1] and less than 10 µM on CK2.
Consider `CC1(O)CCN(Cc2nc3c(oc4ccc(Br)cc43)c(=O)[nH]2)C1` (stereo not drawn) [Compound 346, 8-bromo-2-[(3-hydroxy-3-methylpyrrolidin-1-yl)methyl][1]benzofuro[3,2-d]pyrimidin-4(3H)-one], for which the 50% inhibitory concentration (IC50) at CDC7 (setting [2]) was less than 10 µM; on CDC7 (setting [3]) it was less than 0.1 µM; in test [1], less than 10 µM; at CK2, less than 10 µM.
For the compound `O=C(O)c1ccc(C(=O)Nc2ccc(-c3nc4c(oc5ccc(Br)cc54)c(=O)[nH]3)c(Cl)c2)nc1` [Compound 347, 6-({[4-(8-bromo-4-oxo-3,4-dihydro[1]benzofuro[3,2-d]pyrimidin-2-yl)-3-chlorophenyl]amino}carbonyl)pyridine-3-carboxylic acid], the IC50 (on CDC7 (setting [2]); in test [1]; on CK2) was less than 10 µM in each case.
In the case of `O=c1[nH]c(CN2C[C@@H](O)[C@@H](O)C2)nc2c1oc1ccc(Br)cc12` [Compound 348, 8-bromo-2-{[cis-3,4-dihydroxypyrrolidin-1-yl]methyl}[1]benzofuro[3,2-d]pyrimidin-4(3H)-one], the IC50 is less than 10 µM on CDC7 (setting [2]), less than 0.1 µM at CDC7 (setting [3]), less than 10 µM in test [1] and less than 10 µM on CK2.
As for `NCc1ccc(-c2nc3c(oc4ccc(Br)cc43)c(=O)[nH]2)cc1` [Compound 349, 2-[4-(Aminomethyl)phenyl]-8-bromo[1]benzofuro[3,2-d]pyrimidin-4(3H)-one], the IC50 (at CDC7 (setting [2]); in test [1]; at CK2) was less than 10 µM each time.
`CN(C)Cc1cccc(-c2nc3c(oc4ccc(Br)cc43)c(=O)[nH]2)c1` [Compound 353, 8-Bromo-2-{3-[(dimethylamino)methyl]phenyl}[1]benzofuro[3,2-d]pyrimidin-4(3H)-one]: the half-maximal inhibitory concentration (IC50) (at CDC7 (setting [2]); in test [1]; at CK2) was less than 10 µM each time.
Take `Cc1cc(C(=O)Nc2ccc(-c3nc4c(oc5ccc(Br)cc54)c(=O)[nH]3)c(Cl)c2)no1` [Compound 362, N-[4-(8-bromo-4-oxo-3,4-dihydro[1]benzofuro[3,2-d]pyrimidin-2-yl)-3-chlorophenyl]-5-methylisoxazole-3-carboxamide]: the IC50 (on CDC7 (setting [2]); in test [1]; at CK2) was less than 10 µM in each case.
As to `O=C(Nc1ccc(-c2nc3c(oc4ccc(Br)cc43)c(=O)[nH]2)c(Cl)c1)c1ccon1` [Compound 363, N-[4-(8-bromo-4-oxo-3,4-dihydro[1]benzofuro[3,2-d]pyrimidin-2-yl)-3-chlorophenyl]isoxazole-3-carboxamide], the IC50 (on CDC7 (setting [2]); in test [1]; at CK2) was less than 10 µM in each case.
For the compound `CC(=O)N[C@@H]1CCN(Cc2nc3c(oc4ccc(Br)cc43)c(=O)[nH]2)C1` [Compound 364, N-{(3R)-1-[(8-bromo-4-oxo-3,4-dihydro[1]benzofuro[3,2-d]pyrimidin-2-yl)methyl]pyrrolidin-3-yl}acetamide], the half-maximal inhibitory concentration (IC50) at CDC7 (setting [2]) is less than 10 µM; on CDC7 (setting [3]) it was less than 0.1 µM; in test [1], less than 10 µM; at CK2 it was less than 10 µM.
Consider `O=c1[nH]c(CN2CCC[C@H]2CO)nc2c1oc1ccc(Br)cc12` [Compound 366, 8-bromo-2-{[(2S)-2-(hydroxymethyl)pyrrolidin-1-yl]methyl}[1]benzofuro[3,2-d]pyrimidin-4(3H)-one], for which the half-maximal inhibitory concentration (IC50) on CDC7 (setting [2]) is less than 10 µM; at CDC7 (setting [3]), less than 0.1 µM; in test [1], less than 10 µM; on CK2 it was less than 10 µM.
Turning to `O=C(O)C1(O)CCN(Cc2nc3c(oc4ccc(Br)cc43)c(=O)[nH]2)C1` (stereo not drawn) [Compound 368, 1-[(8-bromo-4-oxo-3,4-dihydro[1]benzofuro[3,2-d]pyrimidin-2-yl)methyl]-3-hydroxypyrrolidine-3-carboxylic acid], the half-maximal inhibitory concentration (IC50) at CDC7 (setting [2]) is less than 10 µM; on CDC7 (setting [3]), less than 0.1 µM; in test [1], less than 10 µM; at CK2, less than 10 µM.
With `CO[C@H]1CCN(Cc2nc3c(oc4ccc(Br)cc43)c(=O)[nH]2)C1` [Compound 369, 8-bromo-2-{[(3S)-3-(methyloxy)pyrrolidin-1-yl]methyl}[1]benzofuro[3,2-d]pyrimidin-4(3H)-one], the IC50 at CDC7 (setting [2]) is less than 10 µM; on CDC7 (setting [3]), less than 0.1 µM; in test [1], less than 10 µM; at CK2, less than 10 µM.
As to `O=C(O)C1CN(Cc2nc3c(oc4ccc(Br)cc43)c(=O)[nH]2)C1` [Compound 370, 1-[(8-bromo-4-oxo-3,4-dihydro[1]benzofuro[3,2-d]pyrimidin-2-yl)methyl]azetidine-3-carboxylic acid], the 50% inhibitory concentration (IC50) (at CDC7 (setting [2]); in test [1]; at CK2) was less than 10 µM throughout.
As for `O=C(Nc1ccc(-c2nc3c(oc4ccc(Br)cc43)c(=O)[nH]2)c(Cl)c1)c1ncco1` [Compound 373, N-[4-(8-bromo-4-oxo-3,4-dihydro[1]benzofuro[3,2-d]pyrimidin-2-yl)-3-chlorophenyl]-1,3-oxazole-2-carboxamide], the IC50 (on CDC7 (setting [2]); in test [1]; at CK2) was less than 10 µM each time.
For the compound `O=C(Nc1ccc(-c2nc3c(oc4ccc(Br)cc43)c(=O)[nH]2)c(Cl)c1)c1cnco1` [Compound 374, N-[4-(8-bromo-4-oxo-3,4-dihydro[1]benzofuro[3,2-d]pyrimidin-2-yl)-3-chlorophenyl]-1,3-oxazole-5-carboxamide], the half-inhibitory concentration (IC50) (on CDC7 (setting [2]); in test [1]; on CK2) was less than 10 µM each time.
Take `O=c1[nH]c(-c2cccc3c2CCNC3)nc2c1oc1ccc(Br)cc12` [Compound 375, 8-Bromo-2-(1,2,3,4-tetrahydroisoquinolin-5-yl)[1]benzofuro[3,2-d]pyrimidin-4(3H)-one]: the IC50 on CDC7 (setting [2]) was less than 10 µM; on CDC7 (setting [3]), less than 0.1 µM; in test [1], less than 10 µM; at CK2, less than 10 µM.
With `O=c1[nH]c(-c2cnc3cc(C4CCNCC4)nn3c2)nc2c1oc1ccc(Br)cc12` [Compound 377, 8-Bromo-2-(2-piperidin-4-ylpyrazolo[1,5-a]pyrimidin-6-yl)[1]benzofuro[3,2-d]pyrimidin-4(3H)-one], the half-maximal inhibitory concentration (IC50) (at CDC7 (setting [2]); in test [1]; on CK2) was less than 10 µM throughout.
As to `NC1CCCC(c2nc3c(oc4ccc(Br)cc43)c(=O)[nH]2)C1` (stereo not drawn) [Compound 380, 2-(3-aminocyclohexyl)-8-bromo[1]benzofuro[3,2-d]pyrimidin-4(3H)-one], the half-maximal inhibitory concentration (IC50) is less than 10 µM at CDC7 (setting [2]), less than 0.1 µM on CDC7 (setting [3]), less than 10 µM in test [1] and less than 10 µM on CK2.
For the compound `CN(C)Cc1ccc(-c2nc3c(oc4ccc(Br)cc43)c(=O)[nH]2)c(Cl)c1` [Compound 381, 8-bromo-2-{2-chloro-4-[(dimethylamino)methyl]phenyl}[1]benzofuro[3,2-d]pyrimidin-4(3H)-one], the half-maximal inhibitory concentration (IC50) (at CDC7 (setting [2]); in test [1]; at CK2) was less than 10 µM throughout.
In the case of `O=c1[nH]c(-c2ccc(CNCCN3CCCCC3)cc2Cl)nc2c1oc1ccc(Br)cc12` [Compound 385, 8-bromo-2-(2-chloro-4-{[(2-piperidin-1-ylethyl)amino]methyl}phenyl)[1]benzofuro[3,2-d]pyrimidin-4(3H)-one], the IC50 (on CDC7 (setting [2]); in test [1]; on CK2) was less than 10 µM each time.
Consider `CC(C)(C)OC(=O)N1CCC(NCc2ccc(-c3nc4c(oc5ccc(Br)cc54)c(=O)[nH]3)c(Cl)c2)CC1` [Compound 386, 1,1-dimethylethyl 4-({[4-(8-bromo-4-oxo-3,4-dihydro[1]benzofuro[3,2-d]pyrimidin-2-yl)-3-chlorophenyl]methyl}amino)piperidine-1-carboxylate], for which the IC50 (at CDC7 (setting [2]); in test [1]; on CK2) was less than 10 µM in each case.
As to `O=C(N[C@@H]1CN(Cc2nc3c(oc4ccc(Br)cc43)c(=O)[nH]2)C[C@H]1O)C1CCNCC1` [Compound 388, N-{(3R,4R)-1-[(8-bromo-4-oxo-3,4-dihydro[1]benzofuro[3,2-d]pyrimidin-2-yl)methyl]-4-hydroxypyrrolidin-3-yl}piperidine-4-carboxamide], the concentration for half-maximal inhibition (IC50) (on CDC7 (setting [2]); in test [1]; at CK2) was less than 10 µM throughout.
Consider `Cn1cnc(C(=O)Nc2ccc(-c3nc4c(oc5ccc(Br)cc54)c(=O)[nH]3)c(Cl)c2)c1` [Compound 389, N-[4-(8-bromo-4-oxo-3,4-dihydro[1]benzofuro[3,2-d]pyrimidin-2-yl)-3-chlorophenyl]-1-methyl-1H-imidazole-4-carboxamide], for which the IC50 (on CDC7 (setting [2]); in test [1]; on CK2) was less than 10 µM throughout.

One may read the IC50 as the concentration needed to halve the response being measured.
